Bounds are passed on as bounds.

In experiment [1] the target is Sodium-dependent dopamine transporter (Homo sapiens, UniProt Q01959). Put plainly: Inhibition of DAT.
The target in experiment [2] is Sodium-dependent noradrenaline transporter (Homo sapiens, UniProt P23975). Put plainly: Inhibition of NET.
Experiment [3] addresses Sodium-dependent serotonin transporter (Homo sapiens, UniProt P31645). The experiment in a line: Inhibition of SERT.

Sequence of Sodium-dependent noradrenaline transporter (P23975 whole entry): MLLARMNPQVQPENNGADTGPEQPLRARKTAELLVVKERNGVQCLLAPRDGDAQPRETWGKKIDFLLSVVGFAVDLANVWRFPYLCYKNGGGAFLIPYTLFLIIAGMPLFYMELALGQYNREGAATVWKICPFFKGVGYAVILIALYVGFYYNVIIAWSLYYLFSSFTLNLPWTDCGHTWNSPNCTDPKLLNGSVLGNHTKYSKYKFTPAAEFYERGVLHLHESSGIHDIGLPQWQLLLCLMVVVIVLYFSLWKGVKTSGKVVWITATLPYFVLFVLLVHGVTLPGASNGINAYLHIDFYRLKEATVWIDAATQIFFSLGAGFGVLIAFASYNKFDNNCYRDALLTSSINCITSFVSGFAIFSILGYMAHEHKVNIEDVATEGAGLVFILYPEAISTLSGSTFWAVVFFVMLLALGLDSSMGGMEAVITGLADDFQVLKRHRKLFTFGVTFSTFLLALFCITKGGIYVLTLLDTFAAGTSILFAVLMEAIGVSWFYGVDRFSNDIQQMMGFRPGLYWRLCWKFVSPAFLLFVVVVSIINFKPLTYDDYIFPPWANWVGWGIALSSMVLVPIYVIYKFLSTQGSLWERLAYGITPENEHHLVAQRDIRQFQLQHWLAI
Sequence of Sodium-dependent serotonin transporter (P31645 whole entry): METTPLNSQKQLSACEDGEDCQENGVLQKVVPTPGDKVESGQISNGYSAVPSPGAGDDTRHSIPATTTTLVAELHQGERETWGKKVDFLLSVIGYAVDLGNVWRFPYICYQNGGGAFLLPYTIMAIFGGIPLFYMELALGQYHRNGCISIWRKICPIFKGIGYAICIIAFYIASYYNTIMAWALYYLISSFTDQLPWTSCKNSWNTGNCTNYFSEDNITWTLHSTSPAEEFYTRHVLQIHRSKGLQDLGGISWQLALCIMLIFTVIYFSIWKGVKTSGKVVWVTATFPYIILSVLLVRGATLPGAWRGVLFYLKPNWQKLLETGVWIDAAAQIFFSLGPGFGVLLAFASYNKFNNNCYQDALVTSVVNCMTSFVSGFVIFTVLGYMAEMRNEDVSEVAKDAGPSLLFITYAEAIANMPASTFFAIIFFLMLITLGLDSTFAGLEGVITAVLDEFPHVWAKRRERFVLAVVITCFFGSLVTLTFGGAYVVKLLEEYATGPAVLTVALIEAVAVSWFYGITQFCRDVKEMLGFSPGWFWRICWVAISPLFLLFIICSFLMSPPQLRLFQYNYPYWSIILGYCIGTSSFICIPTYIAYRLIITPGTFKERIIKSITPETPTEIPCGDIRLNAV
Sequence of Sodium-dependent dopamine transporter (Q01959 whole entry): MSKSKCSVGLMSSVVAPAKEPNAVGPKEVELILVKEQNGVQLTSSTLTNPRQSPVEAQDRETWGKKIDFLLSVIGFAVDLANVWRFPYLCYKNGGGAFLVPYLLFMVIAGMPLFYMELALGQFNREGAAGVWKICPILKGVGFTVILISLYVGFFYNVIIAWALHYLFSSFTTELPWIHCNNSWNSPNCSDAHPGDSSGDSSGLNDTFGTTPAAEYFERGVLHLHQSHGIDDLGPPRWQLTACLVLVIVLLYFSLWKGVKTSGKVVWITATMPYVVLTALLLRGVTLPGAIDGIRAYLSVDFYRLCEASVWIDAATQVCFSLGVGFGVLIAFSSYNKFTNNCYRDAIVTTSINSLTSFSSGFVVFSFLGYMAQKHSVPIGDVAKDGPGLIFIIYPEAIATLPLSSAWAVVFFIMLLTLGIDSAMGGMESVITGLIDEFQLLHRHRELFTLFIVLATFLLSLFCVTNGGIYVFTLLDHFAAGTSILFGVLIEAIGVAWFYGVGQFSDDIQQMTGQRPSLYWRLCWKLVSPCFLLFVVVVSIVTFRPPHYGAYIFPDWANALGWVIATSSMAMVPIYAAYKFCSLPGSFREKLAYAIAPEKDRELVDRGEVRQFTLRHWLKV

The term Ki denotes a dissociation constant, usually derived from enzyme kinetics or from competition with a known ligand. A high value points to lower affinity. Turning to `CN(C)C[C@H]1C2CCC(CC2)[C@H]1c1ccc(Cl)c(Cl)c1`, the inhibitory constant (Ki) worked out at 0.0072 µM in experiment [1], 0.044 µM in experiment [2] and 0.057 µM in experiment [3].
What is called IC50 is the concentration at which inhibition is half-maximal. Read a high IC50 as lower potency. Consider `CN1[C@H]2CC[C@@H]1[C@@H](C(=O)N1CCCC1)[C@@H](c1ccc(I)cc1)C2`, for which the results for the 50% inhibitory concentration (IC50) in experiment [1], in experiment [2] and in experiment [3] were 0.00037 µM, 1.73 µM and 0.991 µM, respectively.
For `CCCCC1=C(c2ccc(Cl)cc2)C2CCN1CC2`, the affinity in experiment [1], expressed as Ki, was 0.014 µM.
In the case of `COC(=O)[C@@H]1C2CCC(C[C@@H]1c1ccc(C)cc1)N2C/C=C/CF` (some centres undefined), the figures for the IC50 in experiment [1], in experiment [2] and in experiment [3] were 0.0024 µM, more than 1 µM and more than 1 µM, respectively.
Turning to `NCCN1[C@@H]2CC[C@H]1C[C@@H](NC(c1ccc(F)cc1)c1ccc(F)cc1)C2`, the affinity in experiment [1] corresponds to a Ki of 0.0125 µM.
With `COC(=O)[C@H]1[C@@H](c2ccc(C)cc2)C[C@H]2CC[C@@H]1N2C/C=C/I`, the values for the Ki in experiment [1], in experiment [2] and in experiment [3] were 0.017 µM, more than 1 µM and 0.5 µM, respectively.

For the origin of these results see ChEMBL document CHEMBL1641373, “Trishomocubane as a scaffold for the development of selective dopamine transporter (DAT) ligands” (Bioorg Med Chem Lett, 2011).
